Key:
[1] = target: neuraminidase from recombinant H3N2 influenza A virus (Influenza A virus, UniProt P03482); test: biochemical; assay type: biochemical
[2] = target: neuraminidase from recombinant H5N1 influenza A virus (Influenza A virus, UniProt Q6DPL2); test: biochemical
Chain of neuraminidase from recombinant H5N1 influenza A virus (Q6DPL2 whole entry, looked up): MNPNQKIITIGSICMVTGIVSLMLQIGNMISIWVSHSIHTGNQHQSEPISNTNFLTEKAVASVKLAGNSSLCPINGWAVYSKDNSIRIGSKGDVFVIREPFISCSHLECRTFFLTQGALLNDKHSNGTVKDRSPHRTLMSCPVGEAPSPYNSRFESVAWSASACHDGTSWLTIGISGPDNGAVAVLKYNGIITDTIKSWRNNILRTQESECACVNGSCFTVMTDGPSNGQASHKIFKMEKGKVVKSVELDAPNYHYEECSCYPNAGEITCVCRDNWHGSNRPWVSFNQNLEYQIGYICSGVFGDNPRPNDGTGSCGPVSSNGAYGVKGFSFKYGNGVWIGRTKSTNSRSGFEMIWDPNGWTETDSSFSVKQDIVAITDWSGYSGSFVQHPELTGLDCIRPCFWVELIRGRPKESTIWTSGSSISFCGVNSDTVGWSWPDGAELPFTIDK

Chain of neuraminidase from recombinant H3N2 influenza A virus (P03482 whole entry): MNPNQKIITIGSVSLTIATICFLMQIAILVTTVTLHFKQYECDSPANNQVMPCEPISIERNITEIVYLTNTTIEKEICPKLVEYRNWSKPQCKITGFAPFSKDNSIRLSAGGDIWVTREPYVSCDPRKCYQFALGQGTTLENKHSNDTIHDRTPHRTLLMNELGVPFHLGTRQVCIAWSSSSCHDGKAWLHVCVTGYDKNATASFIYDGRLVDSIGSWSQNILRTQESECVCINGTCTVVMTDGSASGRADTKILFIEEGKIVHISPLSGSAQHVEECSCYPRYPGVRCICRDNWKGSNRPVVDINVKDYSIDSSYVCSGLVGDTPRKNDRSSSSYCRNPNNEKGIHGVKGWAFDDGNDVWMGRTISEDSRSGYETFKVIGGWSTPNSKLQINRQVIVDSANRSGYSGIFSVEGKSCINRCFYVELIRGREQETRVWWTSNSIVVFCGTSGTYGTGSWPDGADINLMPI

Q: What does the source list for C/C=C/C1=CC2=C(CO1)C(=O)[C@](C)(O)[C@H](OC(=O)c1c(C)cc(O)cc1O)C2 [Compound 3, comazaphilone D]?
A: Inhibition type [1]: Non-competitive (35.3); Ki [1]: 35.3 µM; IC50 ([1]; IC50 H3N2 neuraminidase): 30.9 ± 0.1 µM; IC50 [2]: 35.7 ± 0.2 µM

Reference: article PMC6691809 (Mycobiology, 2019)
